# Reference: article PMC7923466, “Mining of two novel aldehyde dehydrogenases (DHY-SC-VUT5 and DHY-G-VUT7) from metagenome of hydrocarbon contaminated soils” (BMC Biotechnology, 2021)
# Key:
# DHY-SC-VUT5 = tested on: T1, DHY-SC-VUT5; test: NADH formation at […] nm, Michaelis-Menten fit (GraphPad Prism); format: biochemical, uncultured bacterium; details: 50 mM NAD+, 50 mM Tris-HCl pH 8.0, 30 °C; hexanal 25-200 mM
# T1 construct: codon-optimised synthetic gene in pET-30a(+) (NdeI/HindIII), C-terminal 6xHis kept, E. coli BL21(DE3), Ni-NTA purified, ~51 kDa band
# DHY-G-VUT7 = tested on: T2, DHY-G-VUT7; test: as above; format: biochemical, metagenome: hydrocarbon contaminated soil; details: 50 mM NAD+, 50 mM Tris-HCl pH 8.0, 30 °C; hexanal 25-200 mM
# T2 construct: codon-optimised synthetic gene in pET-30a(+) (NdeI/HindIII), C-terminal 6xHis kept, E. coli BL21(DE3), Ni-NTA purified, ~67 kDa band
structure (smiles),measurement,setting,value
CCCCCC=O [hexanal],Km,DHY-SC-VUT5,13.8 mM
same,Km,DHY-G-VUT7,2.83 mM
